ChEMBL document CHEMBL1151541, “Modified thrombin receptor-agonist peptide ligands. Synthesis and conformational analysis of analogs of the N-terminal tripeptide region” (1995)
Numbered stars: 1 amine (or outer) side, 2 acyl side, 3 side chain; on linkers, the order of the positions; unused ones are H or OH. Square brackets hold non-standard residues; d marks the D form. Peptide text beside a SMILES is read from it. * marks the point of attachment. ξ: configuration not given here. X2 = N[C@@H](CO)C(=O)CN([C@@H](Cc1ccccc1)C(=O)[*:2])[*:1]; X3 = C[C@@H](c1ccccc1)[C@H](N[*:1])C(=O)[*:2]; NMe2Phe = CN(C)[C@@H](Cc1ccccc1)C(=O)*; NEtPhe = CCN[C@@H](Cc1ccccc1)C(=O)O; X1 = CCN(CC)[C@@H](Cc1ccccc1)C(=O)*; NMeF = CN[C@@H](Cc1ccccc1)C(=O)O; Tic = O=C(O)[C@@H]1Cc2ccccc2CN1; Aib = CC(C)(N)C(=O)O; Propionyl = CCC(=O)*; Butyryl = CCCC(=O)*; ξLac = CC(O)C(=O)O; For = O=C*

Organism: Homo sapiens
Assay: Agonist activity in human platelet aggregation
Assay type: functional
Details: read-out: ED50 (the source's name)
CC(C)C[C@H](NCC(=O)[C@H](Cc1ccccc1)NC(=O)[C@@H](N)CO)C(=O)N[C@@H](CC(C)C)C(=O)N[C@@H](CCCN=C(N)N)C(=O)N[C@@H](CC(N)=O)C(=O)O showed an EC50 greater than 1000 µM.
CC(C)C[C@H](NC(=O)[C@H](CC(C)C)NC(=O)[C@H](Cc1ccccc1)N(C)C(=O)[C@@H](N)CO)C(=O)N[C@@H](CCCN=C(N)N)C(=O)N[C@@H](CC(N)=O)C(=O)O showed an EC50 greater than 1000 µM.
CC(C)C[C@H](NC(=O)[C@H](CC(C)C)NC(=O)[C@H](Cc1ccccc1)NC(=O)[C@@H](N)CO)C(=O)N[C@@H](CCCN=C(N)N)C(=O)N[C@@H](CC(N)=O)C(=O)O was tested, and the EC50 was 0.92 µM.
For CC(C)C[C@H](NC(=O)[C@H](Cc1ccccc1)NC=O)C(=O)N[C@@H](CC(C)C)C(=O)N[C@@H](CCCN=C(N)N)C(=O)N[C@@H](CC(N)=O)C(=O)O (For-FLLRN-OH), the EC50 was 62.4 µM.
CC(C)C[C@H](NC(=O)[C@H](CC(C)C)NC(=O)[C@@H]1Cc2ccccc2CN1C(=O)[C@@H](N)CO)C(=O)N[C@@H](CCCN=C(N)N)C(=O)N[C@@H](CC(N)=O)C(=O)O (H-S[Tic]LLRN-OH) was tested, and the EC50 was greater than 1000 µM.
CC(C)C[C@H](NC(=O)[C@H](CC(C)C)NC(=O)[C@@H](NC(=O)[C@@H](N)CO)[C@@H](C)c1ccccc1)C(=O)N[C@@H](CCCN=C(N)N)C(=O)N[C@@H](CC(N)=O)C(=O)O (H-S[X3]LLRN-OH) was tested, and the EC50 was 27 µM.
CCN[C@@H](Cc1ccccc1)C(=O)N[C@@H](CC(C)C)C(=O)N[C@@H](CC(C)C)C(=O)N[C@@H](CCCN=C(N)N)C(=O)N[C@@H](CC(N)=O)C(=O)O (H-[NEtPhe]LLRN-OH) gave an EC50 greater than 1000 µM.
Work on CN[C@@H](Cc1ccccc1)C(=O)N[C@@H](CC(C)C)C(=O)N[C@@H](CC(C)C)C(=O)N[C@@H](CCCN=C(N)N)C(=O)N[C@@H](CC(N)=O)C(=O)O (H-[NMeF]LLRN-OH) yielded an EC50 greater than 1000 µM.
H-SFGLRN-OH was tested, and the EC50 was 14.8 µM.
With CCC(=O)N[C@@H](Cc1ccccc1)C(=O)N[C@@H](CC(C)C)C(=O)N[C@@H](CC(C)C)C(=O)N[C@@H](CCCN=C(N)N)C(=O)N[C@@H](CC(N)=O)C(=O)O (Propionyl-FLLRN-OH) the EC50 was 35 µM.
With CCN(CC)[C@@H](Cc1ccccc1)C(=O)N[C@@H](CC(C)C)C(=O)N[C@@H](CC(C)C)C(=O)N[C@@H](CCCN=C(N)N)C(=O)N[C@@H](CC(N)=O)C(=O)O (X1-LLRN-OH) the EC50 was greater than 1000 µM.
CNC(=O)C[C@H](NC(=O)[C@H](CCCN=C(N)N)NC(=O)[C@H](CC(C)C)NC(=O)[C@H](CC(C)C)NC(=O)[C@H](Cc1ccccc1)NC(=O)C(C)O)C(=O)O (some centres undefined) (H-[ξLac]FLLRD(NHMe)-OH) showed an EC50 of 49 µM.
CC(C)C[C@H](NC(=O)[C@H](CC(C)C)NC(=O)[C@H](Cc1ccccc1)N(C)C)C(=O)N[C@@H](CCCN=C(N)N)C(=O)N[C@@H](CC(N)=O)C(=O)O (NMe2Phe-LLRN-OH) showed an EC50 greater than 1000 µM.
In the case of Ac-FLLRN-OH, the EC50 is reported as 84.5 µM.
CC(C)C[C@H](NC(=O)[C@H](CC(C)C)NC(=O)[C@@H](NC(=O)[C@@H](N)CO)[C@H](C)c1ccccc1)C(=O)N[C@@H](CCCN=C(N)N)C(=O)N[C@@H](CC(N)=O)C(=O)O showed an EC50 of 2 µM.
With CC(C)C[C@H](NC(=O)[C@H]1CCCN1C(=O)[C@H](Cc1ccccc1)NC(=O)[C@@H](N)CO)C(=O)N[C@@H](CCCN=C(N)N)C(=O)N[C@@H](CC(N)=O)C(=O)O the EC50 was 5.3 µM.
With CC(C)C[C@H](NC(=O)[C@H](CC(C)C)NC(=O)[C@](C)(Cc1ccccc1)NC(=O)[C@@H](N)CO)C(=O)N[C@@H](CCCN=C(N)N)C(=O)N[C@@H](CC(N)=O)C(=O)O the EC50 was 169 µM.
For CC(C)C[C@H](NC(=O)[C@H](CC(C)C)N(C)C(=O)[C@H](Cc1ccccc1)NC(=O)[C@@H](N)CO)C(=O)N[C@@H](CCCN=C(N)N)C(=O)N[C@@H](CC(N)=O)C(=O)O, the EC50 was 70 µM.
For CC(C)C[C@H](NC(=O)C(C)(C)NC(=O)[C@H](Cc1ccccc1)NC(=O)[C@@H](N)CO)C(=O)N[C@@H](CCCN=C(N)N)C(=O)N[C@@H](CC(N)=O)C(=O)O (H-SF[Aib]LRN-OH), the EC50 was greater than 1000 µM.
In the case of CC(C)C[C@H](NC(=O)[C@@H]1Cc2ccccc2CN1C(=O)[C@H](Cc1ccccc1)NC(=O)[C@@H](N)CO)C(=O)N[C@@H](CCCN=C(N)N)C(=O)N[C@@H](CC(N)=O)C(=O)O (H-SF[Tic]LRN-OH), the EC50 is reported as 4.6 µM.
Work on CCCC(=O)N[C@@H](Cc1ccccc1)C(=O)N[C@@H](CC(C)C)C(=O)N[C@@H](CC(C)C)C(=O)N[C@@H](CCCN=C(N)N)C(=O)N[C@@H](CC(N)=O)C(=O)O (Butyryl-FLLRN-OH) yielded an EC50 of 75.1 µM.
CC(C)C[C@H](NC(=O)[C@H](Cc1ccccc1)NCC(=O)[C@@H](N)CO)C(=O)N[C@@H](CC(C)C)C(=O)N[C@@H](CCCN=C(N)N)C(=O)N[C@@H](CC(N)=O)C(=O)O (H-[X2]LLRN-OH) showed an EC50 of 382 µM.
Compound CC(C)C[C@H](NC(=O)[C@H]1CCCN1C(=O)[C@@H](NC(=O)[C@@H](N)CO)[C@H](C)c1ccccc1)C(=O)N[C@@H](CCCN=C(N)N)C(=O)N[C@@H](CC(N)=O)C(=O)O has an EC50 of 1.6 µM.
CC(C)C[C@H](NC(=O)[C@H]1CCCN1C(=O)[C@@H](NC(=O)[C@@H](N)CO)[C@@H](C)c1ccccc1)C(=O)N[C@@H](CCCN=C(N)N)C(=O)N[C@@H](CC(N)=O)C(=O)O was tested, and the EC50 was 216 µM.
